Patent US10555909B2, “Microencapsulation of B-alanine” (INNOBIO CORPORATION LIMITED, priority 2015, dated 2020)
“And” between values parts separate entries of the source, which are not always exact repeats. Identical values can stand only once.

Columns and labels:
[1] = Size distribution of β-alanine before and after sustained-release microencapsulation; assay type: physicochemical
[2] = Release rate experiment, USP <711> Dissolution, Apparatus 2, 50 rpm, delayed-release method B; assay type: physicochemical
Description: Regarding to the measurement to the release rate in the present invention, the release rate experiment in 0.1N hydrochloric acid solution and pH6.8 phosphate buffer is conducted referring to USP<711>DISSOLUTIO and using Apparatus 2 with a rotate speed of 50 rpm by DELAYED-RELEASE DOSAGE FORMS method B.

[3] = Tingling sensation evaluation after oral administration; assay type: in vivo
Description: The evaluation method of the tingling sensation in the present invention is that: a subject respectively administrates unsustained-release microencapsulated material containing a certain amount of β-alanine and sustained-release microencapsulated β-alanine. The time, intensity and duration of having the abnormal sensation are recorded.
The tingling sensation after oral administration of the β-alanine products A and D in Table 1 was evaluated according to a tingling sensation evaluation method, and an administration dosage, based on the β-alanine, is 22.8 mg/Kg (body weight).
In the tingling evaluation experiment in Table 5, the dosage of the subject was 45.7 mg/kg (body weight).

## NCCC(=O)O [Product A, β-alanine]
[1]; fraction 300-450 μm
  Size distribution 300-450 μm: 0%
[1]; fraction 450-900 μm
  Size distribution 450-900 μm: 43.7%
[1]; fraction 900-1000 μm
  Size distribution 900-1000 μm: 56.3%
other
  Dissolution in water (in words): easy to be dissolved in water
[2]; 0.1N hydrochloric acid solution
  Release in 0.1N hydrochloric acid solution (in words): quickly and completely released
[2]; pH6.8 phosphate buffer
  Release in pH6.8 phosphate buffer (in words): quickly and completely released
[3]; 22.8 mg/Kg body weight based on β-alanine, one value per subject, 0 no sensation, 1-5 acceptable, 6-10 unacceptable
  Administration evaluation: Intensity: 6 (2×) and 7
[3]; 22.8 mg/Kg, per subject
  Duration of the abnormal sensation (lasting for): 45 min and lasting for 30 min. and 1 h
  Time of having the abnormal sensation (onset): 15 min and sensation in the hands, face and ears in 10 min, and 25 min
